Experimental data from patent US10738041B2, “Ferroportin inhibitors” (Vifor (International) AG, priority 2015, dated 2020).
pIC50: −log10 of the molar value.

Molecular target: T1, ferroportin (Fpn) (Mus musculus, UniProt Q9JHI9)
T1 construct: host or cells: J774 mouse macrophage cell line, Fe(III)-NTA induced
T1 sequence (Q9JHI9 1-570): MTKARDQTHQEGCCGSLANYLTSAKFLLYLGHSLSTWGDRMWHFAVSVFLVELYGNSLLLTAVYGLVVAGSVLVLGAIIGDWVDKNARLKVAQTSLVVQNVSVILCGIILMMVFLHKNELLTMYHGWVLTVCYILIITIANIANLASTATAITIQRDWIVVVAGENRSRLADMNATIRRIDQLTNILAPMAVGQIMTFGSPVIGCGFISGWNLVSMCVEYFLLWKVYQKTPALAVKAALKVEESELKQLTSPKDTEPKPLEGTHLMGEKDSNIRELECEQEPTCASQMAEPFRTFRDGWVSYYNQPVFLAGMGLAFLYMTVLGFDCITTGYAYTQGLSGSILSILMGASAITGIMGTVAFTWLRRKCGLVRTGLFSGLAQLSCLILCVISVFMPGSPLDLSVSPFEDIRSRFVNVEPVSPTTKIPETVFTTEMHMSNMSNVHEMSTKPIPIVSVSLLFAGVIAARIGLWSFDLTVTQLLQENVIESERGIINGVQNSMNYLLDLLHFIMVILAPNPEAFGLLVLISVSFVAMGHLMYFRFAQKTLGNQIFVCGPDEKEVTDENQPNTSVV
Assay: Hepcidin Internalization Assay (J774)
Assay type: cell-based
Conditions: average of multiple measurements; inhibition of TMR-hepcidin (25 nM) internalization into J774 cells; read-out: J774 IC50
From the text: This cellular assay allows quantification of the binding of hepcidin to ferroportin (Fpn) through microscopic detection of internalization of a fluorescently labeled hepcidin into J774 cells. […] Binding of hepcidin to Fpn triggers internalization and degradation of both hepcidin and Fpn. However, the TMR (6-carboxytetramethylrhodamine) fluorophore attached to hepcidin remains associated with the cell after degradation of the hepcidin peptide backbone. Therefore, microscopic detection of ceH associated TMR fluorescence is a measure of hepcidin binding to Fpn and internalization of hepcidin and Fpn. If TMR-hepcidin is prevented from binding to Fpn, cellular TMR fluorescence remains low (Dürrenberger et al, 2013). The effect of small molecular weight Fpn inhibitor compounds in this assay was evaluated in vitro as described below.
J774 cells, harvested from ca. 80% confluent cultures, were plated at 8×10^5 cells/ml in complete medium (DMEM, 10% FBS, 1% Penicillin-Streptomycin) containing 200 μM Fe(III)NTA (nitrilotriacetic acid), 100 μl per well of 96 well MicroClear plates (Greiner; Cat. 655090) and grown at 37° C. with 5% CO2. After overnight incubation, cells were washed 3 times with pre-warmed DMEM w/o phenol red, 30 μl/well of DMEM w/o phenol red was added after the final wash and 10 μl/well of dilution series of test compounds were added in triplicates. […] Cells were incubated in a total volume of 50 μl at 37° C. with 5% CO2 for 2 hours, then Hoechst 33342 dye was added to a final concentration of 0.5 μg/ml to stain nuclei and further incubated for 10 min. at 37° C. with 5% CO2. Cells were washed 3 times with PBS and fixed in 100 μl of 4% paraformaldehyde in PBS for 15 min. at room temperature. After removal of the paraformaldehyde solution, cells were washed 3 times with PBS leaving 100 μl per well and the plates were sealed with foil plate seal. TMR (530-550 nm excitation/575-625 nm emission/400 ms exposure time) and Hoechst 33342 (360-370 nm excitation/420-460 nm emission/10 ms exposure time) fluorescence images were acquired using a ScanR plate imager (Olympus) with a 20× high NA objective. Four pictures were acquired per well and fluorescence channel covering ca. 1500 cells per well. The acquired image data was analysed with the ScanR image analysis software. Image analysis included detection of nuclei (Hoechst 33342 fluorescence), identification of cell-associated regions, application of a virtual channel and thresholding for rolling-ball-type background reduction, followed by application of the Sum(Mean) algorithm to measure the TMR fluorescence associated with cells as a quantitative measure for internalized TMR-hepcidin. IC50 values were calculated with the Sum(Mean) raw data using “log(inhibitor) vs. response” curve fitting of Prism 5 software (GraphPad Software Inc., version 5.02).

| SMILES | pIC50 |
| --- | --- |
| O=C(NCc1ccccc1)c1csc(CCNCc2nccs2)n1 [Example 3] | 4.78 |
| CC(=O)N(CCc1nc(C(=O)NCc2ccccc2)cs1)Cc1nccn1C [Example 4] | 4.81 |
| O=C(NCc1ccccc1)c1csc(CCNCc2n[nH]c3ccccc23)n1 [Example 5] | 4.98 |
| O=C(NCc1ccccc1)c1csc(CCNC(=O)c2nc3ccccc3[nH]2)n1 [Example 7] | 4.85 |
| O=C(NCc1ccccc1)c1csc(CCNC(=O)c2ncc[nH]2)n1 [Example 8] | 4.37 |
| O=C(c1csc(CCNCc2nc3ccccc3[nH]2)n1)N1CCOCC1 [Example 18] | 5.06 |
| O=C(NCc1ccccn1)c1cnn(CCNCCc2nc3ccccc3[nH]2)c1 [Example 109] | 7.12 |
| O=C(Cc1nc2ccccc2[nH]1)NCCc1nc(C(=O)NCc2ncccc2F)cs1 [Example 113] | < 4.60 |
| O=C(NCc1ncccc1F)c1csc(CCNCc2nc3ccc(F)cc3[nH]2)n1 [Example 114] | 6.93 |
| O=C(NCc1ncccc1F)c1csc(CCNCc2nc3ccccc3o2)n1 [Example 115] | < 4.60 |
| O=C(NCc1ncc(F)cc1F)c1csc(CCNCCc2nc3cc(F)ccc3[nH]2)n1 [Example 123] | 6.77 |
| O=C(NCc1ncccn1)c1csc(CCNCCc2nc3ccccc3[nH]2)n1 [Example 129] | 6.45 |
| O=C(NC1CCc2cccnc21)c1cnn(CCNCCc2nc3ccccc3[nH]2)c1 (stereo not drawn) [Example 131] | 7.05 |
| Cc1nn(CCNCc2nc3ccccc3[nH]2)c(C)c1C(=O)NCc1ncccc1F [Example 142] | 4.67 |
| O=C(NCc1ncccc1F)c1cnn(CCNCc2nc3ccccc3[nH]2)c1 [Example 145] | 6.41 |
| O=C(NCc1ncccc1F)c1csc(CCN(CCc2nc3ccccc3[nH]2)CC2CC2)n1 [Example 148] | 5.68 |
| Cc1cnc(CNC(=O)c2csc(CCNCCc3nc4ccccc4[nH]3)n2)nc1 [Example 155] | 6.46 |
| O=C(NCc1ncccc1F)c1cn(CCNCc2nc3ccccc3[nH]2)nc1C(F)(F)F [Example 156] | 5.61 |
| CCCCN(CCc1nc2ccccc2[nH]1)CCc1nc(C(=O)NCc2ncccc2F)cs1 [Example 157] | 6.14 |

| SMILES | pIC50 |
| --- | --- |
| O=C(NCc1ccccn1)c1nc(CCNCc2nc3ccccc3[nH]2)sc1Cl [Example 160] | 6.59 |
| O=C(NCc1ncccc1F)c1cn(CCNCCc2nc3ccccc3[nH]2)nc1C(F)(F)F [Example 162] | 6.53 |
| NCCCN(CCc1nc2ccccc2[nH]1)CCc1nc(C(=O)NCc2ncccc2F)cs1 [Example 163] | 6.08 |
| Cc1sc(CCNCc2nc3ccccc3[nH]2)nc1C(=O)NCc1ncccc1F [Example 164] | 6.46 |
| Cc1sc(CCNCCc2nc3ccccc3[nH]2)nc1C(=O)NCc1ncccc1F [Example 165] | 7.00 |
| O=C(NCc1ncccc1Cl)c1coc(CCNCCc2nc3ccccc3[nH]2)n1 [Example 173] | 8.22 |
| Cc1ccc(CNC(=O)c2csc(CCNCCc3nc4ccccc4[nH]3)n2)nn1 [Example 174] | 6.85 |
| O=C(NCc1ncccn1)c1nc(CCNCc2nc3ccccc3[nH]2)sc1Cl [Example 175] | 5.99 |
| O=C(NCc1ncccc1F)c1nc(CCNCc2nc3ccccc3[nH]2)sc1C(F)(F)F [Example 176] | 6.02 |
| Cc1cnc(CNC(=O)c2nc(CCNCCc3nc4ccccc4[nH]3)sc2Cl)nc1 [Example 182] | 6.00 |
| O=C(NCc1cccnn1)c1nc(CCNCCc2nc3ccccc3[nH]2)sc1Cl [Example 183] | 6.88 |
| O=C(NCc1ccccn1)c1nc(CCNCCc2nc3ccccc3[nH]2)sc1Cl [Example 184] | 7.20 |
| O=C(NCc1ncccc1F)c1nc(CCNCCc2nc3ccccc3[nH]2)sc1C(F)(F)F [Example 186] | 6.52 |
| Cc1sc(CCNCCc2nc3ccccc3[nH]2)nc1C(=O)NCc1ncccn1 [Example 188] | 5.94 |
| O=C(NCc1ccccn1)c1nc(CCN2CCc3nc4ccccc4n3C2)sc1Cl [Example 189] | 7.22 |
| O=C(NC1CCc2cccnc21)c1cnn(C2CN(CCc3nc4ccccc4[nH]3)C2)c1 (stereo not drawn) [Example 191] | 6.48 |
| O=C(NCc1ncccc1Cl)c1csc(C2CN(CCc3nc4ccccc4[nH]3)C2)n1 [Example 195] | 6.68 |
| O=C(NCc1ncccc1F)c1cnn(C2CCN(CCc3nc4ccccc4[nH]3)CC2)c1 [Example 198] | 4.57 |
| CC(C)(CNCCc1nc(C(=O)NCc2ncccc2F)cs1)c1nc2ccccc2[nH]1 [Example 199] | 6.11 |

| SMILES | pIC50 |
| --- | --- |
| O=C(NCc1ncccc1F)c1nc(CNCCc2nc3ccccc3[nH]2)cs1 [Example 205] | 6.43 |
| O=C(NCc1ncccc1F)c1coc(CNCCc2nc3ccccc3[nH]2)n1 [Example 206] | 6.74 |
| O=C(NCc1ncccc1F)c1nc(C2CN(CCc3nc4ccccc4[nH]3)C2)sc1Cl [Example 209] | 6.42 |
| O=C(NCc1ncccc1F)c1nc(C2(O)CN(CCc3nc4ccccc4[nH]3)C2)sc1Cl [Example 211] | 6.13 |
| Cn1nc(CNCCc2nc3ccccc3[nH]2)cc1C(=O)NCc1ncccc1F [Example 220] | 6.54 |
| COc1cccc2[nH]c(CCNCCc3nc(C(=O)NCc4ncccc4F)co3)nc12 [Example 227] | 6.89 |
| CC(C)(Cc1nc(C(=O)NCc2ncccc2F)cs1)NCc1nc2ccccc2[nH]1 [Example 231] | 5.28 |
| O=C(NCc1ccccn1)c1coc(CCNCCc2nc3c(F)cccc3[nH]2)n1 [Example 236] | 6.82 |
| O=C(NCc1cccnn1)c1coc(C2CN(CCc3nc4ccccc4[nH]3)C2)n1 [Example 244] | 7.05 |
| O=C(NCc1ncccc1F)c1coc(CCNCCc2nc3c(F)ccc(Cl)c3[nH]2)n1 [Example 247] | 7.09 |
| O=C(NCc1ncccc1F)c1coc(CCNCCc2nc3c(F)ccc(F)c3[nH]2)n1 [Example 251] | 7.21 |
| O=C(NCc1ncccc1F)c1coc(CCNCc2nc3c(F)cccc3[nH]2)n1 [Example 253] | 6.65 |
| O=C(NCc1ncccc1F)c1coc(CCNCCc2nc3c(C(F)(F)F)cccc3[nH]2)n1 [Example 256] | 7.09 |
| O=C(NCc1ncccc1F)c1coc(CCNCCc2nc3c(F)c(F)ccc3[nH]2)n1 [Example 257] | 7.46 |
| O=C(NCc1ccccn1)c1coc(C2CN(CCc3nc4c(F)cccc4[nH]3)C2)n1 [Example 258] | 6.82 |
| O=C(NCc1ncccc1F)c1coc(C2CN(CCc3nc4c(C(F)(F)F)cccc4[nH]3)C2)n1 [Example 273] | 6.64 |
| O=C(NCc1ncccc1F)c1csc(CCNCc2nc3c(F)cccc3[nH]2)n1 [Example 274] | 6.84 |
| NC(=O)c1csc(CCNCc2nc3ccccc3[nH]2)n1 [compound 23] | 4.80 |
| O=C(NCc1ncccc1F)[C@@H]1CCN(CCNCc2nc3ccccc3[nH]2)C1 [compound 202] | 5.30 |
